Reference: PubChem BioAssay (NCI)
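Exposure lasted 48 hours, with cells grown in 96-well plates and compounds tested at five concentrations. TGI: concentration producing complete growth inhibition.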

Tests used:
Assay in all cases: growth of human tumour cells (NCI), 48 h
HOP-62 NSCLC = test system: HOP-62 NSCLC
UACC-257 melanoma = test system: UACC-257 melanoma
SF-268 CNS = test system: SF-268 CNS
HL-60(TB) leukemia = test system: HL-60(TB) leukemia
MOLT-4 leukemia = test system: MOLT-4 leukemia
DMS 273 small cell lung = test system: DMS 273 small cell lung
NCI-H23 lung = test system: NCI-H23 lung
HCC-2998 colon = test system: HCC-2998 colon
IGROV1 ovarian = test system: IGROV1 ovarian
NCI-H226 lung = test system: NCI-H226 lung
COLO 205 colon = test system: COLO 205 colon
HT29 colon = test system: HT29 colon
M14 melanoma = test system: M14 melanoma
A549 NSCLC = test system: A549 NSCLC
HOP-92 NSCLC = test system: HOP-92 NSCLC
LXFL 529 NSCLC = test system: LXFL 529 NSCLC
RPMI-8226 leukemia = test system: RPMI-8226 leukemia
XF 498 CNS = test system: XF 498 CNS
SNB-19 CNS = test system: SNB-19 CNS
SF-539 CNS = test system: SF-539 CNS
SK-MEL-28 melanoma = test system: SK-MEL-28 melanoma
NCI-H522 lung = test system: NCI-H522 lung
LOX IMVI melanoma = test system: LOX IMVI melanoma
SW-620 colon = test system: SW-620 colon
SNB-78 CNS = test system: SNB-78 CNS
OVCAR-5 ovarian = test system: OVCAR-5 ovarian
U251 CNS = test system: U251 CNS
EKVX NSCLC = test system: EKVX NSCLC
SK-MEL-5 melanoma = test system: SK-MEL-5 melanoma
OVCAR-4 ovarian = test system: OVCAR-4 ovarian
CAKI-1 renal = test system: CAKI-1 renal
OVCAR-3 ovarian = test system: OVCAR-3 ovarian
786-0 renal = test system: 786-0 renal
KM12 colon = test system: KM12 colon
SK-OV-3 ovarian = test system: SK-OV-3 ovarian
SK-MEL-2 melanoma = test system: SK-MEL-2 melanoma
DLD-1 colon = test system: DLD-1 colon
RXF 393 renal = test system: RXF 393 renal
KM20L2 colon = test system: KM20L2 colon
SF-295 CNS = test system: SF-295 CNS
M19-MEL melanoma = test system: M19-MEL melanoma
OVCAR-8 ovarian = test system: OVCAR-8 ovarian
UO-31 renal = test system: UO-31 renal
SN12C renal = test system: SN12C renal
UACC-62 melanoma = test system: UACC-62 melanoma
TK-10 renal = test system: TK-10 renal
HCT-116 colon = test system: HCT-116 colon
CCRF-CEM leukemia = test system: CCRF-CEM leukemia
K-562 leukemia = test system: K-562 leukemia
HCT-15 colon = test system: HCT-15 colon
DMS 114 small cell lung = test system: DMS 114 small cell lung
SR leukemia = test system: SR leukemia
ACHN renal = test system: ACHN renal
MALME-3M melanoma = test system: MALME-3M melanoma
SNB-75 CNS = test system: SNB-75 CNS
NCI-H460 lung = test system: NCI-H460 lung
HOP-18 NSCLC = test system: HOP-18 NSCLC
A498 renal = test system: A498 renal

COC(=O)C(=C\Sc1ccccc1)/C=C/C(=O)OC(C)(C)C
TGI (HOP-62 NSCLC): 34.8 µM
TGI (UACC-257 melanoma): 26.5 µM
TGI (SF-268 CNS): 31.8 µM
TGI (HL-60(TB) leukemia): 3.73 µM
TGI (MOLT-4 leukemia): 9.44 µM
TGI (DMS 273 small cell lung): 24.5 µM
TGI (NCI-H23 lung): 33.1 µM
TGI (HCC-2998 colon): 21.6 µM
TGI (IGROV1 ovarian): 27.5 µM
TGI (NCI-H226 lung): 30.9 µM
TGI (COLO 205 colon): 14 µM
TGI (HT29 colon): 36.1 µM
TGI (M14 melanoma): 21.2 µM
TGI (A549 NSCLC): 42 µM
TGI (HOP-92 NSCLC): 13.3 µM
TGI (LXFL 529 NSCLC): 13.5 µM
TGI (RPMI-8226 leukemia): 8.48 µM
TGI (XF 498 CNS): 28.3 µM
TGI (SNB-19 CNS): 15.3 µM
TGI (SF-539 CNS): 27 µM
TGI (SK-MEL-28 melanoma): 26.2 µM
TGI (NCI-H522 lung): 9.9 µM
TGI (LOX IMVI melanoma): 21.7 µM
TGI (SW-620 colon): 12.4 µM
TGI (SNB-78 CNS): 31.9 µM
TGI (OVCAR-5 ovarian): 28.8 µM
TGI (U251 CNS): 27.7 µM
TGI (EKVX NSCLC): 24.9 µM
TGI (SK-MEL-5 melanoma): 28.6 µM
TGI (OVCAR-4 ovarian): 28.6 µM
TGI (CAKI-1 renal): 12.1 µM
TGI (OVCAR-3 ovarian): 17 µM
TGI (786-0 renal): 10.9 µM
TGI (KM12 colon): 24.3 µM
TGI (SK-OV-3 ovarian): 43.9 µM
TGI (SK-MEL-2 melanoma): 24.8 µM
TGI (DLD-1 colon): 7.59 µM
TGI (RXF 393 renal): 7.7 µM
TGI (KM20L2 colon): 31.1 µM
TGI (SF-295 CNS): 34.3 µM
TGI (M19-MEL melanoma): 23.9 µM
TGI (OVCAR-8 ovarian): 31.2 µM
TGI (UO-31 renal): 29.5 µM
TGI (SN12C renal): > 29 µM
TGI (UACC-62 melanoma): 28.8 µM
TGI (TK-10 renal): 30.8 µM
TGI (HCT-116 colon): 21.9 µM
TGI (CCRF-CEM leukemia): 5.35 µM
TGI (K-562 leukemia): 15.8 µM
TGI (HCT-15 colon): 17.7 µM
TGI (DMS 114 small cell lung): 25.8 µM
TGI (SR leukemia): 21 µM
TGI (ACHN renal): 17.2 µM
TGI (MALME-3M melanoma): 30.7 µM
TGI (SNB-75 CNS): 28.5 µM
TGI (NCI-H460 lung): 33.2 µM
TGI (HOP-18 NSCLC): 30 µM

Cc1cc(=O)cc2sc3cc(Cl)ccc3nc1-2
TGI (HOP-62 NSCLC): 29.7 µM
TGI (UACC-257 melanoma): 69.9 µM
TGI (SF-268 CNS): 79.5 µM
TGI (HL-60(TB) leukemia): 26.2 µM
TGI (MOLT-4 leukemia): > 60.8 µM
TGI (DMS 273 small cell lung): 24.6 µM
TGI (NCI-H23 lung): 42.8 µM
TGI (HCC-2998 colon): 24.6 µM
TGI (IGROV1 ovarian): 52 µM
TGI (NCI-H226 lung): 65.6 µM
TGI (COLO 205 colon): 53.7 µM
TGI (HT29 colon): 43.3 µM
TGI (M14 melanoma): 33.3 µM
TGI (A549 NSCLC): 17.8 µM
TGI (HOP-92 NSCLC): 57.7 µM
TGI (LXFL 529 NSCLC): > 100 µM
TGI (RPMI-8226 leukemia): > 100 µM
TGI (XF 498 CNS): 31.3 µM
TGI (SNB-19 CNS): 61.9 µM
TGI (SF-539 CNS): 26.1 µM
TGI (SK-MEL-28 melanoma): 69.2 µM
TGI (NCI-H522 lung): 7.65 µM
TGI (LOX IMVI melanoma): 24.4 µM
TGI (A498 renal): 45.4 µM
TGI (SW-620 colon): 29.8 µM
TGI (SNB-78 CNS): > 100 µM
TGI (OVCAR-5 ovarian): 43.7 µM
TGI (U251 CNS): 33.9 µM
TGI (EKVX NSCLC): 25 µM
TGI (SK-MEL-5 melanoma): 12.6 µM
TGI (OVCAR-4 ovarian): > 85.4 µM
TGI (CAKI-1 renal): 46.7 µM
TGI (OVCAR-3 ovarian): 31.9 µM
TGI (786-0 renal): 29 µM
TGI (KM12 colon): 24.5 µM
TGI (SK-OV-3 ovarian): > 82.5 µM
TGI (SK-MEL-2 melanoma): 23.5 µM
TGI (DLD-1 colon): > 100 µM
TGI (RXF 393 renal): 30 µM
TGI (KM20L2 colon): 30.1 µM
TGI (SF-295 CNS): 26.6 µM
TGI (M19-MEL melanoma): 31.2 µM
TGI (OVCAR-8 ovarian): 44.6 µM
TGI (UO-31 renal): 63.1 µM
TGI (SN12C renal): 50.3 µM
TGI (UACC-62 melanoma): 20.9 µM
TGI (TK-10 renal): 53.8 µM
TGI (HCT-116 colon): 28.7 µM
TGI (CCRF-CEM leukemia): 37.5 µM
TGI (K-562 leukemia): 20.6 µM
TGI (HCT-15 colon): 16 µM
TGI (SR leukemia): 10.3 µM
TGI (ACHN renal): 30.6 µM
TGI (MALME-3M melanoma): 39.7 µM
TGI (SNB-75 CNS): 15.7 µM
TGI (NCI-H460 lung): 35.4 µM
TGI (HOP-18 NSCLC): > 100 µM

CC12Oc3ccc4ccccc4c3C1c1c(ccc3ccccc13)O2 (centres undefined)
TGI (SF-268 CNS): > 100 µM
TGI (MOLT-4 leukemia): > 100 µM
TGI (DMS 273 small cell lung): > 100 µM
TGI (NCI-H23 lung): > 100 µM
TGI (IGROV1 ovarian): > 100 µM
TGI (NCI-H226 lung): > 100 µM
TGI (COLO 205 colon): > 100 µM
TGI (HT29 colon): > 100 µM
TGI (M14 melanoma): > 100 µM
TGI (A549 NSCLC): > 100 µM
TGI (HOP-92 NSCLC): > 100 µM
TGI (LXFL 529 NSCLC): > 100 µM
TGI (XF 498 CNS): > 100 µM
TGI (SNB-19 CNS): > 100 µM
TGI (SF-539 CNS): > 100 µM
TGI (SK-MEL-28 melanoma): > 100 µM
TGI (NCI-H522 lung): > 100 µM
TGI (LOX IMVI melanoma): > 100 µM
TGI (SW-620 colon): > 100 µM
TGI (SNB-78 CNS): > 100 µM
TGI (OVCAR-5 ovarian): > 100 µM
TGI (U251 CNS): > 100 µM
TGI (EKVX NSCLC): > 100 µM
TGI (SK-MEL-5 melanoma): > 100 µM
TGI (OVCAR-4 ovarian): > 100 µM
TGI (CAKI-1 renal): > 100 µM
TGI (OVCAR-3 ovarian): > 100 µM
TGI (786-0 renal): > 100 µM
TGI (KM12 colon): > 100 µM
TGI (SK-OV-3 ovarian): > 100 µM
TGI (SK-MEL-2 melanoma): > 100 µM
TGI (DLD-1 colon): > 100 µM
TGI (RXF 393 renal): > 100 µM
TGI (KM20L2 colon): > 100 µM
TGI (SF-295 CNS): > 100 µM
TGI (M19-MEL melanoma): > 100 µM
TGI (OVCAR-8 ovarian): > 100 µM
TGI (UO-31 renal): > 100 µM
TGI (SN12C renal): > 100 µM
TGI (UACC-62 melanoma): > 100 µM
TGI (TK-10 renal): > 100 µM
TGI (HCT-116 colon): > 100 µM
TGI (CCRF-CEM leukemia): > 100 µM
TGI (K-562 leukemia): > 100 µM
TGI (DMS 114 small cell lung): > 100 µM
TGI (SR leukemia): > 100 µM
TGI (ACHN renal): > 100 µM
TGI (MALME-3M melanoma): > 100 µM
TGI (SNB-75 CNS): > 100 µM
TGI (NCI-H460 lung): > 100 µM
